“Also recorded” adds a separate entry of the source.
Legend:
CK-p25 mice = assay: p25 (CK-p25) mouse model of Alzheimer's disease; assay type: in vivo; details: 30 mg/kg i.p. daily
Method: Cdk^5tetO/+; Camk^2atTa/+ model of Alzheimer's disease uses the Camk2a promoter-driven tetracycline-controlled transactivator system (tTA) to overexpress human p25 fused to GFP in forebrain projection neurons after the removal of doxycycline from the diet. To avoid potential developmental effects of p25 expression, all mice were conceived and raised in the presence of doxycycline until 6-8 weeks of age.
Immunostaining. Mice were anesthetized with ketamine (120 mg/kg) and xylazine (24 mg/kg) and perfused transcardially with 10 ml PBS and 40 ml 4% paraformaldehyde (Electron Microscopy Sciences). Fixed brains were removed and dehydrated in 5%, 15% and 30% sucrose in PBS. Following dehydration, brains were frozen in Neg-50 (Thermo Scientific) on dry ice and stored at −80° C. until further processing. Brains were cut using a cryostat and 25-μm sections were mounted on Superfrost Plus microscope slides (Fisher Scientific). Slides were stored at −80° C. until staining. Slides were washed with PBS, permeabilized with PBS+0.2% Triton X-100 (PBST) and blocked with 2% normal goat serum in PBST for one hour at room temperature. Slides were incubated with primary antibodies (IBA1, 1:500, 019-19741, Waco; NeuN) in 2% normal goat serum in PBST overnight at 4° C. Slides were washed in PBST and incubated in Alexa Fluor-conjugated secondary antibodies (Alexa Fluor 488-, 546-, and 568- and 647-labeled goat anti-mouse, goat anti-rat, goat anti-chicken, goat anti-rabbit or donkey anti-goat IgGs (H+L); 1:500, Thermo Scientific) in 2% normal goat serum in PBST for 1 h at RT. Slides were washed and cover-slipped using Prolong Gold anti-fade with DAPI (Invitrogen) and dried overnight. Imaging was performed using a Zeiss LSM 780 Confocal Microscope (Zeiss, Oberkochen, DE). For z-stack images, 20-μm z-stack confocal images were acquired at 2-μm intervals, with 40×/1.3 oil objective at 0.6 or 1× zoom. For single plane images, 4.6 μm images were acquired at 20×/0.8 or 40×/1.3 objectives 0.6 or 1× zoom. Image processing was performed using Zen 2011 software (Zeiss).
Immunoblotting. Mice were anesthetized with CO2 followed by decapitation, and the region of interest was rapidly dissected and frozen in liquid nitrogen and stored at −80° C. until further processing. Samples were sonicated at 4° C. in 1% SDS solution supplemented with protease, Trichostatin A (500 ng/ml) and PhosStop phosphatase inhibitor (Roche, Switzerland), and boiled for ten minutes. The protein concentration was determined using a BCA protein assay kit (ThermoFisherScientific, USA) according to the manufacturer's instructions. Protein samples were diluted in equal volume of 2×LDS sample buffer (Invitrogen) and supplemented with DTT to a final concentration of 200 mM (Sigma).
Therefore to test the therapeutic effect of IBET858, p25 was overexpressed for two weeks in adult mice to initiate microgliosis and gene expression deficits before administration of daily IBET858 (30 mg/kg, i.p.) treatment for five weeks (FIG. 6A).
Gene expression levels for Casp3 are unaffected by 5 week IBET858 treatment in vivo. n=3, unpaired two-tailed t-test. […] To generate the p25 neurodegenerative mouse model, tetOCDK5R1/GFP were bred to CamK2a-tTA mice (“CK-p25”). Transgene overexpression was induced at 6 weeks of age by removing doxycycline from the diet. After two weeks, mice were daily injected with IBET858 (30 mg/kg, i.p.) or vehicle (FIG. 24C). Gene expression and protein levels of GFP reflecting transgene expression are unchanged.

C57bl/6 mice = assay: Brain gene expression in IBET858 treated mice; assay type: in vivo, mouse
Method: In vivo I-BET858 treatment. IBET858 was developed and validated by GlaxoSmithKline. I-BET858 solutions used for in vivo studies (3 mg/ml) were prepared in 10% Kleptose buffer with 5% DMSO (pH 6.5) and maintained at 4° C. I-BET858 was made fresh daily, buffers were made fresh each week. 30 mg/kg I-BET858 or vehicle (Kleptose buffer pH=6.5) was delivered by i.p injection. For acute treatment, 6-week-old mice received a single I-BET858 injection. […] Gene expression and behavioral changes were assessed in 6 weeks old mice at 4 h (acute, n=8-10 for behavior, n=2 for gene expression analysis) or 12 h (chronic, n=10 for behavior, n=2 for gene expression analysis) after the (last) I-BET858 injection, respectively.
RNA Isolation. For in vitro gene expression analysis, neuronal culture plates were washed once with PBS, and TRIzol was added directly to cultures to isolate RNA (n=3 per group). For in vivo gene expression analysis, mice were anesthetized with CO2 and decapitated. The striata from two control and acute or chronic I-BET treated mice were rapidly dissected on ice and frozen in liquid nitrogen. RNA extraction from frozen samples was performed using TRIzol/Chloroform according to manufacturer's instructions (Invitrogen Corporation, Carlsbad, CA). RNA was precipitated overnight at −80° C. in isopropanol with 0.15 M sodium acetate, washed twice with 70% ethanol, air-dried, and resuspended in RNase-free water. RNA samples were purified using Rneasy Micro columns (Qiagen) with on-column DNAse treatment as specified by manufacturer. RNA integrity was assayed using nanodrop and RNA Pico chip on Bioanalyzer 2100 (Agilent, Santa Clara, CA) for quality RIN>9.
IBET treatment induces neuroprotective gene expression changes in the hippocampus of mice in vivo (FIG. 23A).

[1] = IBET858 treated mice compared to vehicle

CC(=O)N1c2ccc(-c3ccc(CN4CCCCC4)cc3)cc2[C@H](Nc2ccccc2)CC1C (stereo in doubt) [IBET858]
hippocampal inflammatory genes induced by P25 overexpression (CK-p25 mice; five weeks): suppressed | contextual and cued recall (freezing behavior) (CK-p25 mice; five weeks, fear conditioning): indistinguishable from controls | hippocampal Psd95 protein level compared to wild type controls (CK-p25 mice; five weeks, untreated P25 42+/−10.7%): 106+/−11.9% | hippocampal NeuN protein level compared to wild type controls (CK-p25 mice; five weeks, untreated P25 49+/−9.3%): 105+/−9.8% | brain atrophy (loss) (CK-p25 mice; five weeks, untreated p25 27%): 17% | number of microglia in the hippocampus (CK-p25 mice; five weeks, untreated p25 713.9+/−106): 332.9+/−12.6 Iba1+ cells per mm^2 | neuronal density in the dentate gyrus (CK-p25 mice; five weeks, untreated p25 2254+/−223.8): 7880+/−587 NeuN+ cells per mm2 | expression of the p25 transgene (CK-p25 mice; western blot / GFP): does not affect; also recorded: unchanged | genes induced by P25 overexpression that are significantly suppressed (CK-p25 mice; hippocampus): 365 genes | genes suppressed by P25 overexpression that are significantly induced (CK-p25 mice; hippocampus): 373 genes | Casp3 gene expression levels (C57bl/6 mice; 5 week IBET858 treatment in vivo): unaffected | autophagy and proteostasis genes (C57bl/6 mice; [1]): increased | genes involved in metabolic pathways (C57bl/6 mice; [1]): downregulated

Source: patent US12691124B2, “Methods of controlling and improving brain health” (ICAHN SCHOOL OF MEDICINE AT MOUNT SINAI, priority 2019, dated 2026)
